Test results taken from PubChem BioAssay AID2060902 (Molecular Pharmacology Branch, DTP, NCI, 2025).

System: 485368-065-R3-J5-PDC spheroids with HUVEC/MSC, viability
Assay: Anticancer human tumor 485368-065-R3-J5-PDC patient-derived pancreatic carcinoma cell line growth inhibition [RAS]
Conditions: for IC50: curve of first compound; for viability, T/C: stronger effect = lower value; active = viability on the fitted dose curve at most 10% of control; inactive = the rest
Outline: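 Multi-cell-type spheroids: tumor cells plus HUVEC endothelial cells and mesenchymal stem cells. RAS-pathway inhibitors were combined with targeted agents, each dosed in half-log steps down from clinical Cmax, or from 10 microM when Cmax was unknown.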

[1] = second compound 0.00316 µM, first compound 0.0316 µM
[2] = second compound 0.00316 µM, first compound 0.1 µM
[3] = second compound 0.00316 µM, first compound 0.316 µM
[4] = second compound 0.00316 µM, first compound 1 µM
[5] = second compound 0.01 µM, first compound 0.0316 µM
[6] = second compound 0.01 µM, first compound 0.1 µM
[7] = second compound 0.01 µM, first compound 0.316 µM
[8] = second compound 0.01 µM, first compound 1 µM
[9] = second compound 0.0316 µM, first compound 0.0316 µM
[10] = second compound 0.0316 µM, first compound 0.1 µM
[11] = second compound 0.0316 µM, first compound 0.316 µM
[12] = second compound 0.0316 µM, first compound 1 µM
[13] = second compound 0.1 µM, first compound 0.0316 µM
[14] = second compound 0.1 µM, first compound 0.1 µM
[15] = second compound 0.1 µM, first compound 0.316 µM
[16] = second compound 0.1 µM, first compound 1 µM
[17] = second compound 0.316 µM, first compound 0.0316 µM
[18] = second compound 0.316 µM, first compound 0.1 µM
[19] = second compound 0.316 µM, first compound 0.316 µM
[20] = second compound 0.316 µM, first compound 1 µM
[21] = second compound 1 µM, first compound 0.0316 µM
[22] = second compound 1 µM, first compound 0.1 µM
[23] = second compound 1 µM, first compound 0.316 µM
[24] = second compound 1 µM, first compound 1 µM
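Note: spheroids exposed to agents for seven days before readout.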

C=CC(=O)Nc1cc(Nc2nccc(-c3cn(C)c4ccccc34)n2)c(OC)cc1N(C)CCN(C)C + C=CC(=O)N1CCN(c2nc(OCC3CCCN3C)nc3c(F)c(-c4nc(N)cc(C)c4C(F)(F)F)c(Cl)cc23)C(C)C1
> 1 µM: IC50 (second compound 0.00316 µM) | IC50 (second compound 0.01 µM) | IC50 (second compound 0.0316 µM) | IC50 (second compound 0.1 µM) | IC50 (second compound 0.316 µM) | IC50 (second compound 1 µM)
inactive: viability, T/C (second compound 0.00316 µM, first compound 0.00316 µM) 103% | viability, T/C (second compound 0.00316 µM, first compound 0.01 µM) 89.9% | viability, T/C [1] 104% | viability, T/C [2] 104% | viability, T/C [3] 108% | viability, T/C [4] 97.1% | viability, T/C (second compound 0.01 µM, first compound 0.00316 µM) 105% | viability, T/C (second compound 0.01 µM, first compound 0.01 µM) 96.9% | viability, T/C [5] 94.8% | viability, T/C [6] 100% | viability, T/C [7] 115% | viability, T/C [8] 89.5% | viability, T/C (second compound 0.0316 µM, first compound 0.00316 µM) 100% | viability, T/C (second compound 0.0316 µM, first compound 0.01 µM) 98.9% | viability, T/C [9] 99.4% | viability, T/C [10] 109% | viability, T/C [11] 108% | viability, T/C [12] 94.1% | viability, T/C (second compound 0.1 µM, first compound 0.00316 µM) 99.8% | viability, T/C (second compound 0.1 µM, first compound 0.01 µM) 98.6% | viability, T/C [13] 99.7% | viability, T/C [14] 103% | viability, T/C [15] 100% | viability, T/C [16] 85% | viability, T/C (second compound 0.316 µM, first compound 0.00316 µM) 98% | viability, T/C (second compound 0.316 µM, first compound 0.01 µM) 93.1% | viability, T/C [17] 111% | viability, T/C [18] 119% | viability, T/C [19] 117% | viability, T/C [20] 87.8% | viability, T/C (second compound 1 µM, first compound 0.00316 µM) 106% | viability, T/C (second compound 1 µM, first compound 0.01 µM) 96.8% | viability, T/C [21] 110% | viability, T/C [22] 112% | viability, T/C [23] 106% | viability, T/C [24] 87.8%

CC(C)NCC(C(=O)N1CCN(c2ncnc3c2C(C)CC3O)CC1)c1ccc(Cl)cc1 (centres undefined) + C=CC(=O)N1CCN(c2nc(OCC3CCCN3C)nc3c(F)c(-c4nc(N)cc(C)c4C(F)(F)F)c(Cl)cc23)C(C)C1
> 10 µM: IC50 (second compound 0.00316 µM) | IC50 (second compound 0.01 µM) | IC50 (second compound 0.0316 µM) | IC50 (second compound 0.1 µM) | IC50 (second compound 0.316 µM)
9.61 µM: IC50 (second compound 1 µM)
inactive: viability, T/C [1] 101% | viability, T/C [2] 93.7% | viability, T/C [3] 94.7% | viability, T/C [4] 82.9% | viability, T/C (second compound 0.00316 µM, first compound 3.16 µM) 70.8% | viability, T/C (second compound 0.00316 µM, first compound 10 µM) 61.6% | viability, T/C [5] 109% | viability, T/C [6] 101% | viability, T/C [7] 91.4% | viability, T/C [8] 75.8% | viability, T/C (second compound 0.01 µM, first compound 3.16 µM) 72.9% | viability, T/C (second compound 0.01 µM, first compound 10 µM) 53.5% | viability, T/C [9] 102% | viability, T/C [10] 124% | viability, T/C [11] 93.3% | viability, T/C [12] 88.2% | viability, T/C (second compound 0.0316 µM, first compound 3.16 µM) 68.6% | viability, T/C (second compound 0.0316 µM, first compound 10 µM) 57% | viability, T/C [13] 102% | viability, T/C [14] 105% | viability, T/C [15] 93.1% | viability, T/C [16] 78.9% | viability, T/C (second compound 0.1 µM, first compound 3.16 µM) 70.5% | viability, T/C (second compound 0.1 µM, first compound 10 µM) 57.8% | viability, T/C [17] 100% | viability, T/C [18] 105% | viability, T/C [19] 97.3% | viability, T/C [20] 78.3% | viability, T/C (second compound 0.316 µM, first compound 3.16 µM) 71.8% | viability, T/C (second compound 0.316 µM, first compound 10 µM) 52.9% | viability, T/C [21] 101% | viability, T/C [22] 90.6% | viability, T/C [23] 102% | viability, T/C [24] 84.6% | viability, T/C (second compound 1 µM, first compound 3.16 µM) 68% | viability, T/C (second compound 1 µM, first compound 10 µM) 49.1%
